The structures appear in SMILES notation. Where two headings read alike, the source gives them in different places.

This is an account of results in patent US4482559A, “4-Phenyl-4,5,6,7-tetrahydro-thieno [2,3-c]pyridines, compositions and use” (Boehringer Ingelheim KG, priority 1982, dated 1984).

In data set [1] the test system is hypothermic effect caused by reserpine. Put plainly: reserpine antagonism (reversal of the hypothermic effect caused by reserpine) in mice. Format: in vivo. To be noted: Mus musculus, oral, reserpine 2 mg/kg i.p. 17 hours before. The method, then:
The test used for determining antidepressant properties was reserpine antagonism, namely the reversal of the hypothermic effect caused by reserpine. This test was carried out on mice, using five animals per dose. 17 hours after the intraperitoneal administration of 2 mg/kg of reserpine, the peripheral body temperature was measured at an ambient temperature of 19° C. Then, the test compound was administered by the oral route, and the body temperature was measured after 1, 3, 5 and 7 hours had elapsed. A median effective dose (ED50) was determined for each period of measurement. This is the dose at which the body temperature of the animals treated with reserpine is brought closer to the normal temperature of the untreated control animals by 50%.

Data set [2] in a line: LD50 in the mouse by oral route. The conditions noted are these: in vivo.
The mark [3] stands for this setting: 1 hour, read-out: Reserpine antagonism, median effective dose (ED50) after 1 hr.
Setting [4] is: 3 hours, read-out: Reserpine antagonism, median effective dose (ED50) after 3 hrs.
Where [5] appears, read: 5 hours, read-out: Reserpine antagonism, median effective dose (ED50) after 5 hrs.
[6] abbreviates: 7 hours, read-out: Reserpine antagonism, median effective dose (ED50) after 7 hrs.

What is called ED50 is the midpoint of the dose-response relation. Broadly, the LD50 is the dose at which mortality reaches 50%. A low value points to a more toxic substance. Take `Cc1ccc(C2CN(C)Cc3sc(CO)cc32)cc1` (stereo not drawn) [2-(Hydroxy-methyl)-6-methyl-4-p-tolyl-4,5,6,7-tetrahydrothieno[2,3-c]pyridine]: the ED50 in data set [1] (setting [3]) is 2.5 mg/kg; in data set [1] (setting [4]), 0.24 mg/kg; in data set [1] (setting [5]) it was 2.5 mg/kg; in data set [1] (setting [6]), greater than 10 mg/kg. In data set [2], the LD50 was roughly 740 mg/kg.
With `CN1Cc2sc(CN3CCOCC3)cc2C(c2ccc(Br)cc2)C1` (stereo not drawn) [2-(Morpholino-methyl)-4-(p-bromo-phenyl)-6-methyl-4,5,6,7-tetrahydro-thieno[2,3-c]pyridine], the ED50 in data set [1] (setting [3]) was found to be 22 mg/kg; in data set [1] (setting [4]) it was 1.7 mg/kg; in data set [1] (setting [5]), 1.7 mg/kg; in data set [1] (setting [6]), 10 mg/kg. This compound also came in with an LD50 in data set [2] greater than 640 mg/kg.
With `CN1Cc2sc(CN3CCOCC3)cc2C(c2ccc(Cl)cc2)C1` (stereo not drawn) [2-(Morpholino-methyl)-4-(p-chloro-phenyl)-6-methyl-4,5,6,7-tetrahydro-thieno[2,3-c]pyridine], the ED50 in data set [1] (setting [3]) was greater than 40 mg/kg; in data set [1] (setting [4]), 2.6 mg/kg; in data set [1] (setting [5]), 12 mg/kg; in data set [1] (setting [6]), 2.5 mg/kg. Moreover, the LD50 in data set [2] is greater than 640 mg/kg.
